Biological target: NTR1 (Homo sapiens, UniProt P30989)
Assay: NTR1 high-content imaging (HCS) dose response, NTR1-U2OS cells
Assay type: cell-based
Parameters: host or cells: U2OS osteosarcoma
Settings: n = 4 unless otherwise noted; for EC50: Ave. ± S.E.M., read-out: HCS NTR1 Potency EC50; for Emax: read-out: HCS NTR1 Potency Emax
Excerpt: The cell lines utilized in the high-content imaging assays, which include the NTR1-, NTR2-, and GPR35-U2OS osteosarcomas, were obtained from the laboratory of Dr. Lawrence Barak at the Duke University Medical Center. The media used in the culture of the cell lines, as well as the assays themselves, consisted of Minimum Essential Medium (15-010-CM) and L-glutamine (25-005-CL) from Cellgro/Mediatech (Manassas, Va.), fetal bovine serum (SH30396.03) from Hyclone (Logan, Utah), penicillin-streptomycin solution (PS-20) from Omega Scientific in Tarzana, Calif., G418 (ant-gn-1) from Invivogen (San Diego, Calif.), and zeocin (R250-01) from Invitrogen (Carlsbad, Calif.). Cell lines were cultured in T225 tissue culture flasks (431082) supplied by Corning (Corning, N.Y.). Additional reagents employed include Dulbecco's Phosphate-Buffered Saline (DPBS) (21-031CV) from Cellgro/Mediatech, Trypsin-EDTA 0.05% (25300) from Invitrogen, paraformaldehyde (30528954) from Acros Organics (Geel, Belgium), Hoechst 33342 (H3570) from Invitrogen. The high-content assays were run in 1536-well plates (29326) supplied by Aurora Biotechnology (Poway, Calif.) and utilized aluminum plate seals (T592100) from E&K Scientific (Santa Clara, Calif.).
The neurotensin 1 peptide (N6383) from Sigma-Aldrich (St. Louis, Mo.) was used as a positive control in the NTR1 primary HCS assay. For the NTR2 selectivity assay, the non-specific, small molecule 3-(4-fluorophenyl)-7,8-dimethoxy-5-(4-methylbenzyl)-5H-pyrazolo[4,3-c]quinolone which was synthesized internally was used as a positive control. The GPR35 selectivity screen utilized zaprinast (ALX430-020-M010) from Alexis Biochemicals (Farmingdale, N.Y.) as a control.
The high-content imaging based NTR1 primary screen in 1536-well format was utilized to assay the MLSMR library of chemical entities in the following manner. On day one, 4 uL of a cell suspension containing 350,000 NTR1-U2OS cells per mL is added to each well of a 1536-well assay plate. Cells are plated in MEM medium containing 2.5% Fetal Bovine Serum, 1% Penicillin/Streptomycin solution, 1% L-Glutamine, 400 ug/mL G418, and 200 ug/mL Zeocin. The assay plates are then incubated overnight at 37° C., under 5% CO2. Following the overnight incubation, a volume of 60 nL of the compounds at 2 mM in DMSO (final 20 μM, 1% DMSO) was transferred to columns 5-48 of the assay plates using a LabCyte Echo Liquid Handler. Next, 60 nL of DMSO were dispensed to columns 1-4, which served as the positive and neutral control wells. […] The assay plates were centrifuged on an Eppendorf 5810 centrifuge at 1000 rpm for 1 min to ensure even liquid levels in the wells of the assay plates. The assay plates were then returned to the incubator for 1 hour. Following the hour-long incubation at 37° C., the cells in each well were fixed with 4 uL of 6% paraformaldehyde added with a Multidrop Combi. The assay plates were centrifuged as before and incubated at room temperature for 1 hour. On the Kalypsys, plates were then aspirated down to 2.5 uL per well and washed twice with 11 uL per well of DPBS, followed by a final aspiration to 2.5 uL per well. On the Combi dispenser, 5 uL of 5 ug/mL Hoechst 33342 diluted in DPBS was added to each well of assay plates. The plates were again centrifuged as previously described, sealed, and incubated for at least 1 hour prior to being loaded on a PerkinElmer Opera QEHS.
Image acquisition was performed with a 45 plate capacity loader/stacker and the following settings: 40×0.6 NA air objective, acquisition camera set to 2-by-2 binning for an image size of 688 by 512 pixels, beta-arrestin-GFP acquired using 488 nm laser excitation and 540/75 nm emission filters, DAPI (nuclei) using 365 nm Xenon lamp excitation and 450/50 nm emission filters, 3 fields per well. Image analysis was performed using the Acapella Spot Detection Algorithm. For analysis settings and the metrics employed in the data analyses, please refer to supplemental information.

NTR1, sequence (P30989 whole entry, species assumed): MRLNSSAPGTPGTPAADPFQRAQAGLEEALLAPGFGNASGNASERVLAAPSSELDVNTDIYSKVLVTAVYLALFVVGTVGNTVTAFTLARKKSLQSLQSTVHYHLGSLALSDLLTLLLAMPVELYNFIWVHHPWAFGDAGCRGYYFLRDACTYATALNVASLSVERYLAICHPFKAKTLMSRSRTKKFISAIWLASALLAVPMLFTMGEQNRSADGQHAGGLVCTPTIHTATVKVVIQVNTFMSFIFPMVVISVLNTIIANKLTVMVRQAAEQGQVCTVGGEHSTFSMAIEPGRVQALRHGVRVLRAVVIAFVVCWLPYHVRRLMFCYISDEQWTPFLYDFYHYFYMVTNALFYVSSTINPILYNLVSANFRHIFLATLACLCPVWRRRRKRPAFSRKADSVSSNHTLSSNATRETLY

EC50 | Emax | Structure (SMILES)
34.9 ± 4.4 µM | 100% | COc1ccccc1CN1CCN(c2nc(C3CC3)nc3cc(OC)c(OC)cc23)CC1 [Compound 343, 2-cyclopropyl-6,7-dimethoxy-4-(4-(2-methoxybenzyl)piperazin-1-yl)quinazoline]
67.7 ± 5.5 µM | 100% | COc1cc2nc(C3CC3)nc(N3CCN(C(=O)c4ccccc4OC)CC3)c2cc1OC [Compound 345, (4-(2-cyclopropyl-6,7-dimethoxyquinazolin-4-yl)piperazin-1-yl)(2-methoxyphenyl)methanone]

Structure (SMILES) | EC50 | Emax
COc1cc2nc(C3CC3)nc(N3CCN(C(=O)c4ccccc4)CC3)c2cc1OC [Compound 344, (4-(2-cyclopropyl-6,7-dimethoxyquinazolin-4-yl)piperazin-1-yl)(phenyl)methanone] | 45.3 µM | 100%
